In patent publication US20240024405A1, “COMPOSITIONS OF CASPASE INHIBITORS AND METHODS OF USE THEREOF” (priority 2022, published 2024):
Where a SMILES comes first, the peptide text is derived from it. The star is where a group is joined. Cbz = O=C(OCc1ccccc1)*; CH2F = FC*

Columns and labels:
[1] = tested on: SARS-CoV-1; assay type: cell-based
[2] = tested on: HCoV-229E; assay type: cell-based
[3] = tested on: influenza virus (H1N1); assay type: cell-based
[4] = tested on: enterovirus A71; assay type: cell-based
[5] = tested on: MERS-CoV; assay type: cell-based
[6] = tested on: MERS-CoV; assay type: cell-based, human
[7] = tested on: MERS-CoV; assay type: cell-based, human; remark: listed apart in the source
[8] = tested on: MERS-CoV MA; design: species or system mice; conditions: in vivo
[9] = tested on: SARS-CoV-2; design: species or system Golden Syrian hamsters; conditions: in vivo
[10] = tested on: MERS-CoV; assay type: cell-based; remark: listed apart in the source
[11] = tested on: MERS-CoV; assay type: cell-based; remark: listed apart in the source
[12] = target: T1, caspase-6 (Homo sapiens, UniProt P55212); assay type: cell-based
T1 construct: expressed in transfected cells
T1 sequence (P55212 24-179 limits assumed): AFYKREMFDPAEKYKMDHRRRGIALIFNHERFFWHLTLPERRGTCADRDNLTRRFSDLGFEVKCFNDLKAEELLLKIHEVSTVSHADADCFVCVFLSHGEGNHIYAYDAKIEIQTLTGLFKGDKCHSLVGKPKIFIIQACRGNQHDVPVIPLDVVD
T1 sequence (P55212 194-293 limits assumed): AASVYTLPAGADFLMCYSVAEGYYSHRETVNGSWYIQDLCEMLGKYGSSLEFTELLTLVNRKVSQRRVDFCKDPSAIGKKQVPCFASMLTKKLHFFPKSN

[13] = tested on: MERS-CoV; assay type: cell-based; remark: listed apart in the source
[14] = tested on: rMERS-CoV/TKKD; assay type: cell-based, MERS-CoV
[15] = tested on: rMERS-CoV/TKKA; assay type: cell-based, MERS-CoV
[16] = tested on: SARS-CoV-2
[17] = tested on: MERS-CoV
[18] = tested on: HCoV-OC43
[19] = tested on: caspase-6; assay type: cell-based

**Q.** Which results are given for CC[C@H](C)[C@H](NC(=O)[C@H](CCC(=O)OC)NC(=O)[C@@H](NC(=O)OCc1ccccc1)C(C)C)C(=O)N[C@@H](CC(=O)OC)C(=O)CF [z-VEID-fmk, Z-Val-Glu(OMe)-Ile-Asp(OMe)-CH2F] (Cbz-VE(OMe)ID(OMe)-CH2F)?
**A.** SARS-CoV-1 replication (N gene copy) [1]: attenuated; HCoV-229E replication (N gene copy) [2]: attenuated; H1N1 replication (M gene copy) [3]: did not impact; Enterovirus A71 replication (VP1 gene copy) [4]: did not impact; MERS-CoV replication among specific caspase inhibitors (MERS-CoV N-positive cells) [5]: most dramatically limited; MERS-CoV nucleocapsid (N) protein and N gene expression in human lung tissues [6]: significantly reduced; MERS-CoV replication in human intestinal organoids [7]: inhibited; Inhibition of production of infectious virus particles in human intestinal organoids ([7]; 100 µM): approximately 80%; Expression of pro-inflammatory cytokines and chemokines in mouse lungs [8]: significantly attenuated; Body weight loss of infected mice ([8]; mouse): largely inhibited; MERS-CoV MA replication in the lungs ([8]; mouse): effectively reduced; Survival of infected hDPP4 KI mice ([8]; mouse): 80%; Alveolar space immune cells infiltration ([9]; hamster): dramatically inhibited; Body weight of infected hamsters ([9]; hamster): significant improvements; Lung damage by histopathological scores ([9]; hamster): significantly ameliorated; Tissue damage: bronchiolitis, alveolitis and vasculitis ([9]; hamster): significantly ameliorated; Expression of virus-induced pro-inflammatory cytokines and chemokines in hamster lungs [9]: ameliorated; Hamster lung pathology (H&E) [9]: markedly improved; Number of viral N-protein positive cells in hamster lungs [9]: reduced; SARS-CoV-2 replication in the hamster lungs [9]: significantly reduced; Virus replication when inhibitor added during MERS-CoV inoculation [10]: did not reduce; Viral inhibitory effect in stable caspase-6 knockdown cells [11]: largely diminished; Cleavage of MERS-CoV N by co-expressed caspase-6 [12]: completely abolished; N cleavage in MERS-CoV-infected cells [12]: similarly inhibited; Antiviral effect of z-VEID-fmk when the IFN pathway is non-functional [13]: diminished; Replication of rMERS-CoV/TKKD [14]: remained effective; Replication of rMERS-CoV/TKKA [15]: not limited; SARS-CoV-2 replication (RdRp gene copy) [16]: attenuated; IC50 [17]: 21.1 µM; Inhibitory effect on MERS-CoV replication across cell types [17]: conserved across different cell types exceptVeroE6 cells; MERS-CoV replication (N gene copy) [17]: attenuated; HCoV-OC43 replication (N gene copy) [18]: attenuated; IC50 [18]: 30.6 µM

**Q.** How did the “Caspase-6 activity in cell lysate” value [19] turn out when CN[C@@H]1C[C@H]2O[C@@](C)([C@@H]1OC)n1c3ccccc3c3c4c(c5c6ccccc6n2c5c31)C(=O)NC4 [Staurosporine] was run?
**A.** activated

**Q.** Which “SARS-CoV-1 replication with pan-caspase inhibitor” value [1] does the source give for z-VAD-fmk here?
**A.** similarly limited

**Q.** And the “HCoV-229E replication with pan-caspase inhibitor” value [2]?
**A.** similarly limited

**Q.** What about the “SARS-CoV-2 replication with pan-caspase inhibitor” value [16] of the same molecule?
**A.** similarly limited

**Q.** What about the “MERS-CoV replication with pan-caspase inhibitor” value [17] of the same molecule?
**A.** significantly limited

**Q.** What about the “HCoV-OC43 replication with pan-caspase inhibitor” value [18] of the same molecule?
**A.** similarly limited
